Where “and” joins values, the source holds several entries; their conditions need not be identical. Identical values can stand only once. Non-standard residues stand in square brackets, D forms with d. Residues, ends and D or L forms follow the SMILES beside them. *: point of attachment. Dolaproine = CO[C@@H]([C@@H]1CCCN1)[C@@H](C)C(=O)O; Dil = CC[C@H](C)[C@H](NC)[C@@H](CC(=O)O)OC; X1 = C[C@@H](N*)[C@@H](O)c1ccccc1; NMeV = CN[C@H](C(=O)O)C(C)C
Test system: B16 cells
Test: NanoString PanCancer IO 360 gene expression and gene set analysis of MMAE-treated cells
Type: cell-based, murine
Method: RNA was isolated from cells or tumor tissues and comprehensive immune profiling was analyzed using the NanoString PanCancer IO 360 Panel and NanoString nCounter PanCancer Mouse Immune Profiling gene expression platforms. Gene set analysis with calculated global significance scores and directed significance scores were calculated for treated cells. The Advanced Analysis module of the nSolver software was used to analyze genes associated with listed immune cells in tumors and given a Z-score (n = 3 mice per group). Expression levels of GZMB were analyzed using real-time quantitative PCR. Reverse transcription was performed with the iScript cDNA synthesis kit (Biorad), using aliquots of total RNA extracted with RNeasy Plus Mini Kit (Qiagen). Gene-specific primers were GZMB-F […] and GZMB-R […]. Real-time PCR reactions were performed using the CFX Connect Real-Time PCR System (Biorad) and the amplifications were done using the iTaq Universal SYBR Green Supermix (Biorad). qPCR data were analyzed using the Bio-Rad CFX Maestro software. […]
a Undirected Directed Enrichment
Pathway # of Genes Enrichment Score Score
Gene Name Supplementary Figure 1: Gene
Mdm2 expression analysis of MMAE treated
Casp3 cells. B16 cells exposed to 5 nM MMAE for
Bcl2l1 72 hrs. RNA collected and analyzed using Cd68 murine NanoString PanCancer IO 360
Thbs1 Panel. a) Gene set analysis with calculated
Gls global significance scores and directed
Fstl3 significance scores. b) Heatmap depicting
Mfge8 2 differential gene expression of 36 genes
Brd3 1 control and MMAE treated cells. Source
Pias4 0 data are provided in Source Data file under
Fzd9 tab labeled Figure 1b.
Supplementary Data 1: Complete NanoString expression data of Figure 1b. Untreated control (n=2) and 5 nM MMAE treated (n=3) B16 cells were harvested at 72 hrs. RNA was collected and analyzed using NanoString PanCancer IO 360 Panel. Individual normalized RNA expression values shown for each gene. […]

[1] = 5 nM MMAE 72 hrs, gene set analysis
[2] = 5 nM MMAE 72 hrs, samples MMAE_5, MMAE_1, MMAE_3

For CC[C@H](C)[C@@H]([C@@H](CC(=O)N1CCC[C@H]1[C@H](OC)[C@@H](C)C(=O)N[C@H](C)[C@@H](O)c1ccccc1)OC)N(C)C(=O)[C@@H](NC(=O)[C@@H](NC)C(C)C)C(C)C [MMAE, monomethyl auristatin E] (H-[NMeV]V[Dil][Dolaproine]-X1), which “Directed Enrichment Score: Angiogenesis” value [1] is on record?
The value was 1.8412.

And the “Directed Enrichment Score: Antigen Presentation” value [1]?
The value was 0.8121.

And the “Directed Enrichment Score: Apoptosis” value [1]?
Its value is 0.9856.

What about the “Directed Enrichment Score: Autophagy” value [1] of the same compound?
The value was -3.279.

And the “Directed Enrichment Score: Cell Proliferation” value [1]?
Its value is -0.7774.

What about the “Directed Enrichment Score: Costimulatory Signaling” value [1] of the same compound?
Its value is -1.9366.

And the “Directed Enrichment Score: Cytokine and Chemokine Signaling” value [1]?
Its value is -1.4236.

And the “Directed Enrichment Score: Cytotoxicity” value [1]?
The value was 0.8779.

And the “Directed Enrichment Score: DNA Damage Repair” value [1]?
The value was -1.9501.

What about the “Directed Enrichment Score: Epigenetic Regulation” value [1] of the same compound?
Its value is -1.7988.

What about the “Directed Enrichment Score: Hedgehog Signaling” value [1] of the same compound?
Its value is -2.2414.

What about the “Directed Enrichment Score: Hypoxia” value [1] of the same compound?
The value was -2.4508.

And the “Directed Enrichment Score: Immune Cell Adhesion and Migration” value [1]?
The value was -1.0133.

What about the “Directed Enrichment Score: Interferon Signaling” value [1] of the same compound?
The value was 0.9986.

What about the “Directed Enrichment Score: JAK-STAT Signaling” value [1] of the same compound?
The value was -1.657.

What about the “Directed Enrichment Score: Lymphoid Compartment” value [1] of the same compound?
The value was 0.8253.

And the “Directed Enrichment Score: MAPK” value [1]?
The value was -1.437.

What about the “Directed Enrichment Score: Matrix Remodeling and Metastasis” value [1] of the same compound?
Its value is 1.1775.

What about the “Directed Enrichment Score: Metabolic Stress” value [1] of the same compound?
The value was -2.3196.

What about the “Directed Enrichment Score: Myeloid Compartment” value [1] of the same compound?
Its value is 0.1922.

And the “Directed Enrichment Score: NF-kappaB Signaling” value [1]?
The value was -0.7242.

What about the “Directed Enrichment Score: Notch Signaling” value [1] of the same compound?
Its value is -1.0152.

What about the “Directed Enrichment Score: PI3K-Akt” value [1] of the same compound?
The value was -1.358.

What about the “Directed Enrichment Score: TGF-beta Signaling” value [1] of the same compound?
Its value is -2.2971.

And the “Directed Enrichment Score: Wnt Signaling” value [1]?
The value was -2.3166.

What about the “Undirected Enrichment Score: Angiogenesis” value [1] of the same compound?
Its value is 2.7066.

What about the “Undirected Enrichment Score: Antigen Presentation” value [1] of the same compound?
Its value is 1.2276.

What about the “Undirected Enrichment Score: Apoptosis” value [1] of the same compound?
The value was 2.3071.

And the “Undirected Enrichment Score: Autophagy” value [1]?
Its value is 3.5536.

And the “Undirected Enrichment Score: Cell Proliferation” value [1]?
Its value is 2.1596.

What about the “Undirected Enrichment Score: Costimulatory Signaling” value [1] of the same compound?
Its value is 2.2732.

What about the “Undirected Enrichment Score: Cytokine and Chemokine Signaling” value [1] of the same compound?
The value was 1.9551.

And the “Undirected Enrichment Score: Cytotoxicity” value [1]?
The value was 1.637.

What about the “Undirected Enrichment Score: DNA Damage Repair” value [1] of the same compound?
The value was 2.4043.

And the “Undirected Enrichment Score: Epigenetic Regulation” value [1]?
The value was 2.4405.

And the “Undirected Enrichment Score: Hedgehog Signaling” value [1]?
Its value is 3.1229.

What about the “Undirected Enrichment Score: Hypoxia” value [1] of the same compound?
Its value is 2.9454.

What about the “Undirected Enrichment Score: Immune Cell Adhesion and Migration” value [1] of the same compound?
Its value is 1.8838.

And the “Undirected Enrichment Score: Interferon Signaling” value [1]?
The value was 1.5239.

And the “Undirected Enrichment Score: JAK-STAT Signaling” value [1]?
The value was 2.5395.

And the “Undirected Enrichment Score: Lymphoid Compartment” value [1]?
Its value is 1.1946.

And the “Undirected Enrichment Score: MAPK” value [1]?
Its value is 2.756.

And the “Undirected Enrichment Score: Matrix Remodeling and Metastasis” value [1]?
The value was 2.3587.

And the “Undirected Enrichment Score: Metabolic Stress” value [1]?
Its value is 2.8728.

What about the “Undirected Enrichment Score: Myeloid Compartment” value [1] of the same compound?
The value was 1.2711.

What about the “Undirected Enrichment Score: NF-kappaB Signaling” value [1] of the same compound?
Its value is 1.6264.

What about the “Undirected Enrichment Score: Notch Signaling” value [1] of the same compound?
Its value is 2.5438.

What about the “Undirected Enrichment Score: PI3K-Akt” value [1] of the same compound?
Its value is 2.7297.

What about the “Undirected Enrichment Score: TGF-beta Signaling” value [1] of the same compound?
The value was 3.339.

And the “Undirected Enrichment Score: Wnt Signaling” value [1]?
Its value is 3.1574.

What about the “NanoString scores: Bcl2l1” value [2] of the same compound?
The value was 0.4361 and 0.5098 and 0.454.

What about the “NanoString scores: Cd68” value [2] of the same compound?
Its value is 1.981 and 1.6572 and 1.978.

And the “NanoString scores: Mdm2” value [2]?
The value was 0.6422 and 0.6786 and 0.4527.

What about the “pathways downregulated by MMAE (gene set analysis)” value (downregulated pathways / all pathways) of the same compound?
The value was 17/25.

Reference: publication PMC9256669, “Monomethyl auristatin antibody and peptide drug conjugates for trimodal cancer chemo-radio-immunotherapy” (Nature Communications, 2022)
